# Source: patent publication US20220331303A1, “USE OF AN OREXIN 2 RECEPTOR AGONIST FOR THE TREATMENT OF EXCESSIVE SLEEPINESS” (Takeda Pharmaceutical Company Limited, priority 2019, published 2022)
# Where “and” joins values, the source holds several entries; their conditions need not be identical. Equal values may be shown once.
# Test system: sleep-deprived healthy volunteers
# Test: Maintenance of wakefulness test (MWT) in sleep-deprived healthy volunteers
# Assay type: in vivo, human
# Description: The primary objective of this study was to determine the effect of Compound A (methyl (2R,3S)-3-((methylsulfonyl)amino)-2-(((cis-4-phenylcyclohexyl)oxy)methyl)piperidine-1-carboxylate), 44 mg (low dose [LD]) and 112 mg (high dose [HD]), after a single IV dose (compared to placebo) on promoting wakefulness as measured by sleep latency on the MWT (performed at approximately 2, 4, 6, and 8 hours post-dosing starting at approximately 1:00 AM and then at approximate times of 3:00, 5:00, and 7:00 AM) in sleep-deprived healthy volunteers.
# This was a phase 1b, single-center, randomized, double-blind, double-dummy, placebo- and active-controlled, 4-period Williams design crossover study to evaluate the PK, PD, and safety of Compound A in sleep-deprived healthy volunteers. Compound A was administered as a 9-hour IV infusion.
# Healthy adult male subjects aged 18 to 40 years, inclusive, who satisfied the inclusion and exclusion criteria were enrolled in the trial. On Day 1 of treatment period 1, eligible subjects were equally randomized to 4 treatment sequence groups (sequence 1 to 4) which defined the order of administration for Compound A LD, Compound A HD (both delivered as a 9-hour IV infusion), modafinil 300 mg, and placebo.
# During the day before dosing on Day 1, participants were administered the KSS at scheduled timepoints. A practice MWT session was performed on Day 1 treatment period 1 (only once during the entire study) to familiarize subjects with the procedures. Study drug was administered in the clinic in the evening on Day 1 of each treatment period. Subjects underwent the MWT and KSS at specified timepoints after the start of the infusion. Subjects were required to stay awake between the MWT tests. Following completion of the IV infusion on Day 2, subjects underwent an additional MWT test. When the final MWT test and cognitive testing were completed, subjects were allowed to sleep (recovery sleep) for approximately 6 hours. PSG recording was collected during this time. Subjects were discharged from the unit after completion on Day 2 with continuing actigraphy upon discharge (to begin on Day −6 before the next treatment period). The interval between each subsequent treatment period was at least 7 days to ensure that the subject's circadian rhythm had returned to a normal cycle. Subject's vital signs, including BP, were monitored during the dosing and testing period. Blood samples for determination of Compound A plasma concentrations were collected at specified timepoints on Days 1 and 2 of each treatment period. Subjects completed the Columbia-Suicide Severity Rating Scale (C-SSRS) during screening, before study drug administration, and before discharge on Day 2 of each treatment period.
# Primary endpoint: Latency for each MWT, defined as time to sleep onset.
# [1] = Compound A 44 mg (LD), 2 hours post infusion start
# [2] = Compound A 44 mg (LD), 4 hours post infusion start
# [3] = Compound A 44 mg (LD), 6 hours post infusion start
# [4] = Compound A 44 mg (LD), 8 hours post infusion start
# [5] = Compound A 44 mg (LD), average overall during infusion
# [6] = Compound A 44 mg (LD, printed ED), 2 hours post infusion start
# [7] = Compound A 44 mg (LD, printed ED), 4 hours post infusion start
# [8] = Compound A 44 mg (LD, printed ED), 8 hours post infusion start
# [9] = Compound A 44 mg, after the end of infusion (1 hour post end of infusion)
# [10] = Compound A 112 mg (HD), 2 hours post infusion start
# [11] = Compound A 112 mg (HD), 4 hours post infusion start
compound,measurement,setting,value
"COC(=O)N1CCC[C@H](NS(C)(=O)=O)[C@@H]1CO[C@H]1CC[C@@H](c2ccccc2)CC1 [Compound A, methyl (2R,3S)-3-((methylsulfonyl)amino)-2-(((cis-4-phenylcyclohexyl)oxy)methyl)piperidine-1-carboxylate]","Average total wake time (MWT), LS mean difference vs placebo",Compound A 44 mg,16.36 min
same,Total sleep time (MWT) compared to placebo,Compound A 44 mg,not significantly different than placebo
same,"Latency to Sleep Onset on MWT, LS Mean",[1],35.74 min
same,"Latency to Sleep Onset on MWT, LS Mean Difference vs placebo",[1],20.06 min
same,"Stage N1 Duration (MWT), LS Mean",[1],0.13 min
same,"Stage N1 Duration (MWT), LS Mean Difference vs placebo",[1],-1.02 min
same,"Stage N2 Duration (MWT), LS Mean",[1],0.24 min
same,"Stage N2 Duration (MWT), LS Mean Difference vs placebo",[1],-0.61 min
same,"Total Microsleeps (MWT), LS Mean",[1],0.38
same,"Total Microsleeps (MWT), LS Mean Difference vs placebo",[1],−1.42
same,"Duration Total Microsleeps (MWT), LS Mean",[2],10.39 s
same,"Duration Total Microsleeps (MWT), LS Mean Difference vs placebo",[2],-1.91 s
same,"Stage N1 Duration (MWT), LS Mean",[2],0.52 min
same,"Stage N1 Duration (MWT), LS Mean Difference vs placebo",[2],-1.13 min
same,"Stage N2 Duration (MWT), LS Mean",[2],0.51 min
same,"Stage N2 Duration (MWT), LS Mean Difference vs placebo",[2],-0.64 min
same,"Total Microsleeps (MWT), LS Mean",[2],2.21
same,"Total Microsleeps (MWT), LS Mean Difference vs placebo",[2],−0.14
same,"Duration Total Microsleeps (MWT), LS Mean",[3],11.84 s
same,"Duration Total Microsleeps (MWT), LS Mean Difference vs placebo",[3],4.44 s
same,"Latency to Sleep Onset on MWT, LS Mean",[3],20.71 min
same,"Latency to Sleep Onset on MWT, LS Mean Difference vs placebo",[3],14.56 min
same,"Stage N1 Duration (MWT), LS Mean",[3],1.80 min
same,"Stage N1 Duration (MWT), LS Mean Difference vs placebo",[3],0.65 min
same,"Stage N2 Duration (MWT), LS Mean",[3],2.63 min
same,"Stage N2 Duration (MWT), LS Mean Difference vs placebo",[3],2.13 min
same,"Total Microsleeps (MWT), LS Mean",[3],2.32
same,"Total Microsleeps (MWT), LS Mean Difference vs placebo",[3],1.07
same,"Latency to Sleep Onset on MWT, LS Mean",[4],13.13 min
same,"Latency to Sleep Onset on MWT, LS Mean Difference vs placebo",[4],9.60 min
same,"Stage N1 Duration (MWT), LS Mean",[4],1.57 min
same,"Stage N1 Duration (MWT), LS Mean Difference vs placebo",[4],0.42 min
same,"Stage N2 Duration (MWT), LS Mean",[4],3.74 min
same,"Stage N2 Duration (MWT), LS Mean Difference vs placebo",[4],2.64 min
same,"Total Microsleeps (MWT), LS Mean",[4],2.10
same,"Total Microsleeps (MWT), LS Mean Difference vs placebo",[4],0.80
same,"Duration Total Microsleeps (MWT), LS Mean",[5],8.89 s
same,"Duration Total Microsleeps (MWT), LS Mean Difference vs placebo",[5],-0.18 s
same,"Latency to Sleep Onset on MWT, LS Mean",[5],25.40 min and 25.40 (1.955) min
same,"Latency to Sleep Onset on MWT, LS Mean Difference vs placebo",[5],16.79 min and 16.8 min and 16.79 (2.682) min
same,"Stage N1 Duration (MWT), LS Mean",[5],1.01 min
same,"Stage N1 Duration (MWT), LS Mean Difference vs placebo",[5],-0.27 min
same,"Stage N2 Duration (MWT), LS Mean",[5],1.78 min
same,"Stage N2 Duration (MWT), LS Mean Difference vs placebo",[5],0.88 min
same,"Total Microsleeps (MWT), LS Mean",[5],1.75
same,"Total Microsleeps (MWT), LS Mean Difference vs placebo",[5],0.08
same,"Duration Total Microsleeps (MWT), LS Mean",[6],1.61 s
same,"Duration Total Microsleeps (MWT), LS Mean Difference vs placebo",[6],-7.19 s
same,"Latency to Sleep Onset on MWT, LS Mean",[7],32.04 min
same,"Latency to Sleep Onset on MWT, LS Mean Difference vs placebo",[7],22.94 min
same,"Duration Total Microsleeps (MWT), LS Mean",[8],11.72 s
same,"Duration Total Microsleeps (MWT), LS Mean Difference vs placebo",[8],3.92 s
same,"Latency to Sleep Onset on MWT, LS Mean (SE)",[9],2.49 (2.241)
same,"Latency to Sleep Onset on MWT, LS Mean Difference vs placebo, Estimate (SE)",[9],−2.16 (2.752)
same,"Average total wake time (MWT), LS mean difference vs placebo",Compound A 112 mg,29.59 min
same,"Sleep latency on the MWT during infusion, stayed across several sessions",Compound A 112 mg,40 min
same,"Total sleep time (MWT), LS mean difference vs placebo",Compound A 112 mg,-2.56 min
same,"Duration Total Microsleeps (MWT), LS Mean",[10],-0.02 s
same,"Duration Total Microsleeps (MWT), LS Mean Difference vs placebo",[10],-8.82 s
same,"Latency to Sleep Onset on MWT, LS Mean",[10],40.02 min
same,"Latency to Sleep Onset on MWT, LS Mean Difference vs placebo",[10],24.35 min
same,"Stage N1 Duration (MWT), LS Mean",[10],-0.04 min
same,"Stage N1 Duration (MWT), LS Mean Difference vs placebo",[10],-1.19 min
same,"Stage N2 Duration (MWT), LS Mean",[10],0.00 min
same,"Stage N2 Duration (MWT), LS Mean Difference vs placebo",[10],-0.85 min
same,"Total Microsleeps (MWT), LS Mean",[10],0.00
same,"Total Microsleeps (MWT), LS Mean Difference vs placebo",[10],−1.80
same,"Duration Total Microsleeps (MWT), LS Mean",[11],-0.02 s
same,"Duration Total Microsleeps (MWT), LS Mean Difference vs placebo",[11],-12.3 s
same,"Latency to Sleep Onset on MWT, LS Mean",[11],40.05 min
same,"Latency to Sleep Onset on MWT, LS Mean Difference vs placebo",[11],30.95 min
same,"Stage N1 Duration (MWT), LS Mean",[11],-0.04 min
same,"Stage N1 Duration (MWT), LS Mean Difference vs placebo",[11],-1.69 min
same,"Stage N2 Duration (MWT), LS Mean",[11],0.00 min
same,"Stage N2 Duration (MWT), LS Mean Difference vs placebo",[11],-1.15 min
same,"Total Microsleeps (MWT), LS Mean",[11],0.00
same,"Total Microsleeps (MWT), LS Mean Difference vs placebo",[11],−2.35
